From patent US12667572B2, “Tricyclic compounds useful in the treatment of cancer, autoimmune and inflammatory disorders” (SCHRÖDINGER, INC., priority 2021, dated 2026)

What was measured:
[1] = system: IL10 secretion in OCI-LY10 cells; test: Human IL10 secretion assay, Assay 2 (MSD); assay type: cell-based; conditions: Homo sapiens, 24 h incubation, Meso Scale Discovery, read-out: IL-10 Secretion IC50 [nM] Assay 2
Protocol: IL10 is one of the cytokines that are regulated via activation of NF-kB signaling. For example, in ABC-DLBCL cell lines, the activated NF-kB signaling leads to increased IL10 secretion. Inhibition of NF-kB signaling has been shown leading to decreased IL10 secretion.
Assay 2: OCI-LY10 cells were seeded in IMEM supplemented with 20% fetal bovine serum at 4.8×10^5 cells per 160 μL per well in 96-well V-bottom cell culture plates (corning, 3894), treated with 120 nL of 3-fold serial compound dilutions, starting at 4 mM. The final vehicle concentration was 0.075% DMSO in all wells. After a 24 h incubation, human IL-10 precoated plates (Meso Scale Discovery) were washed 3 times with PBST, and 50 μL culture medium was aspirated into the MSD plate and incubated at 4° C. overnight. The supernatant was then discarded, and the wells were washed 3 times with PB ST. SULFO-TAG Anti-human IL-10 Antibody (50×) was diluted 50-fold according to the Meso Scale Protocol, then 25 μL of SULFO-TAG Anti-human IL-10 Antibody (1×) was added. After 2 h of incubation at RT, the supernatant was discarded, and the well was washed 3 times with PBST. 2×read buffer was added and the signal was read on an MSD Sector S600. The effect of a particular compound on IL10 secretion is shown relative to the effect of DMSO; set as 100%. IC50 values (nM) were determined using 4-parametric curve-fitting.

[2] = molecular target: T1, full-length MALT1 protein His-MALT1(1-824) (Homo sapiens, UniProt Q9UDY8); test: MALT1 protease assay, Assay 2 (1 nM MALT1, Ac-LRSR-AMC substrate); assay type: biochemical; conditions: 1 nM MALT1, 50 μM Ac-LRSR-AMC, 2 h pre-incubation, 8 hr incubation at RT
T1 construct: full-length MALT1 protein His-MALT1(1-824); His (N); made in house; host or cells: baculovirus-infected insect cells
T1 sequence (Q9UDY8 1-824): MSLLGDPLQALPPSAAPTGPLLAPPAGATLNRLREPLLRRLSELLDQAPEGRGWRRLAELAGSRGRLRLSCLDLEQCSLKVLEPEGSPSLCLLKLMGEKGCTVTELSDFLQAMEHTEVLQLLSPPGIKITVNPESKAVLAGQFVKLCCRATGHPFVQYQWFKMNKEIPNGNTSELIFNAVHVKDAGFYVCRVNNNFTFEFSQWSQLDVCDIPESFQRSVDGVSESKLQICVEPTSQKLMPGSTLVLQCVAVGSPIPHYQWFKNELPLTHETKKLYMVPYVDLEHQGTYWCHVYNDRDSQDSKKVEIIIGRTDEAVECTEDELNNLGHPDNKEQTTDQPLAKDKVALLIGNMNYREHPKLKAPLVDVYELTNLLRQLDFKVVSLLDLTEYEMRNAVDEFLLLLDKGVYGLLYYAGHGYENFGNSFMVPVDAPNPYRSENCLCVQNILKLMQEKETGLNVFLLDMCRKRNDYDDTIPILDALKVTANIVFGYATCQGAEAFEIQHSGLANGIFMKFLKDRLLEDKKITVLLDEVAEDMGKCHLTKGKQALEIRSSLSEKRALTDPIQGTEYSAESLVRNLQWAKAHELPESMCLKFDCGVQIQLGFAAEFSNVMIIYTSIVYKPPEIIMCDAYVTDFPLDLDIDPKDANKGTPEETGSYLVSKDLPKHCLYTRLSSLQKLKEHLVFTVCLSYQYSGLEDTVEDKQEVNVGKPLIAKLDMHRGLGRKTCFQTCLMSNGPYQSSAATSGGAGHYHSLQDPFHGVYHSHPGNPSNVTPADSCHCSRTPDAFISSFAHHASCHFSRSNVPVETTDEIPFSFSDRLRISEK
Procedure, shortened: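 Full-length His-MALT1(1-824) from baculovirus-infected insect cells, pre-incubated with compound 2 h at RT (0.1% DMSO). Then 50 μM Ac-LRSR-AMC added. Buffer was Tris pH 7.5 with 600 mM sodium citrate, DTT, EDTA and BSA. Fluorescence (ex 355/em 460 nm) was read after 8 h at RT and normalized to high/low controls. IC50 from non-linear regression.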

| SMILES | IC50 [1] [nM] | IC50 [2] [nM] |
| --- | --- | --- |
| CC1(C)CC(C(=O)Nc2cc(N=S(C)(C)=O)nc(C(F)(F)F)c2)c2cnc3cc(F)nn3c21 (single isomer, unassigned) [Example 128, N-(2-((dimethyl(oxo)-λ^6-sulfaneylidene)amino)-6-(trifluoromethyl)pyridin-4-yl)-2-fluoro-8,8-dimethyl-7,8-dihydro-6H-cyclopenta[e]pyrazolo[1,5-a]pyrimidine-6-carboxamide] | 100 to 1000 | 10 to 100 |
| CC1(C)C[C@H](C(=O)Nc2cnc(-n3nccn3)c(C(F)(F)F)c2)c2cnc3cc(Cl)nn3c21 (single isomer, unassigned) [Example 44, N-(6-(2H-1,2,3-triazol-2-yl)-5˜(trifluoromethyl)pyridin-3-yl)-2-chloro-8,8-dimethyl-7,8-dihydro-6H-cyclopenta[e]pyrazolo[1,5-a]pyrimidine-6-carboxamide] | 100 to 1000 | < 10 |
| C[C@@H](O)c1cnn(-c2ncc(NC(=O)[C@H]3CC4(CCC4)c4c3cnc3cc(Cl)nn43)cc2Cl)n1 (single isomer, unassigned) [Example 160] | 10 to 100 | < 10 |
| CC1(C)CC(C(=O)Nc2cnc(-c3nnn(CCO)n3)c(Cl)c2)c2cnc3cc(Cl)nn3c21 (stereo not drawn) [Example 123, 2-chloro-N-(5-chloro-6-(2-(2-hydroxyethyl)-2H-tetrazol-5-yl)pyridin-3-yl)-8,8-dimethyl-7,8-dihydro-6H-cyclopenta[e]pyrazolo[1,5-a]pyrimidine-6-carboxamide] | ≥ 1000 | 10 to 100 |
| CC1(C)CC(C(=O)Nc2cnc(-n3nccn3)c(C(F)(F)F)c2)c2cnc3cc(F)nn3c21 (single isomer, unassigned) [Example 151, N-(6-(2H-1,2,3-triazol-2-yl)-5-(trifluoromethyl)pyridin-3-yl)-2-fluoro-8,8-dimethyl-7,8-dihydro-6H-cyclopenta[e]pyrazolo[1,5-a]pyrimidine-6-carboxamide] | 10 to 100 | < 10 |
| CC1(C)CC(C(=O)Nc2cnc(-n3nccn3)c(Cl)c2)c2cnc3c(F)cnn3c21 (single isomer, unassigned) [Example 101, N-(5-chloro-6-(2H-1,2,3-triazol-2-yl)pyridin-3-yl)-3-fluoro-8,8-dimethyl-7,8-dihydro-6H-cyclopenta[e]pyrazolo[1,5-a]pyrimidine-6-carboxamide] | 100 to 1000 | 10 to 100 |
| CC1(C)CC(C(=O)Nc2cnc(-n3nccn3)c(C(F)(F)F)c2)c2cnn3cc(Cl)nc3c21 (single isomer, unassigned) [Example 193, N-(6-(2H-1,2,3-triazol-2-yl)-5-(trifluoromethyl)pyridin-3-yl)-2-chloro-9,9-dimethyl-8,9-dihydro-7H-cyclopenta[d]imidazo[1,2-b]pyridazine-7-carboxamide] | 10 to 100 | < 10 |
| CC1(C)CC(C(=O)Nc2cnc(-n3nccn3)c(Cl)c2)c2cnc3c(F)c(F)nn3c21 (single isomer, unassigned) [Example 122, N-(5-chloro-6-(2H-1,2,3-triazol-2-yl)pyridin-3-yl)-2,3-difluoro-8,8-dimethyl-7,8-dihydro-6H-cyclopenta[e]pyrazolo[1,5-a]pyrimidine-6-carboxamide] | 100 to 1000 | < 10 |
| C[C@@]1(C(F)(F)F)C[C@H](C(=O)Nc2cnc(-n3nccn3)c(C(F)F)c2)c2cnc3cc(Cl)nn3c21 (single isomer, unassigned) [Example 64, 2-chloro-N-(5-(difluoromethyl)-6-(2H-1,2,3-triazol-2-yl)pyridin-3-yl)-8-methyl-8-(trifluoromethyl)-7,8-dihydro-6H-cyclopenta[e]pyrazolo[1,5-a]pyrimidine-6-carboxamide] | 100 to 1000 | 10 to 100 |
